Experimental data taken from US9700044B2, “Symmetrical marinopyrrole derivatives as potential antibiotic agents” (priority 2013, dated 2017).
Read-outs that look alike come from different tables or passages of the source.

Key:
E. coli = assay: MIC by agar dilution, E. coli; assay type: cell-based
Text: (§1) A panel of multiple resistance Gram-positive and Gram-negative pathogens listed in Tables 1 and 2 was used to evaluate the antimicrobial activity of marinopyrrole derivatives (Chart 1) with vancomycin as a positive control. Except for those marked with WHO, all pathogens were isolated between 2008 and 2010 in hospitals located in Beijing; Guangzhou; Sichuan, Shandong and Jiangsu Province. Determination of the minimum inhibitory concentration (MIC) was done by the guidelines of the Clinical and Laboratory Standards Institute (Clinical and Laboratory Standards Institute, Performance standards for antimicrobial susceptibility testing, seventeenth informational supplement. 2007, 27, M100-S17). The susceptibility tests of a bacterial strain to a marinopyrrole derivative were performed by an agar dilution method. Briefly, each sterile petri dish contained a final volume of 15 mL comprising 1 mL of a marinopyrrole derivative and 14 mL of Mueller-Hinton broth. The concentrations of a marinopyrrole derivative are 128, 64, 32, 16, 8, 4, 2, 1, 0.5, 0.25, 0.125, 0.06, 0.03, 0.015 and 0.008 μg/mL. The petri dish containing the broth with different concentration of antibiotics was first inoculated with 10^5 CFU/mL (Denley A400, United Kingdom) and the culture was then incubated with shaking at 35-37° C. for 18-20 h. The potency of the compound was determined and expressed as minimum inhibitory concentration (MIC) in μg/mL. The MIC was determined as the lowest concentration of antibiotic that inhibited visible bacterial growth.

[1] = system: Oxacillin-resistant Staphylococcus aureus (WHO-25); assay: MIC by agar dilution, ORSA (WHO-25); assay type: cell-based
Text: as §1

[2] = system: Methicillin-resistant Staphylococcus aureus with the mec A gene and PBP2a (WHO-31); assay: MIC by agar dilution, MRSA (WHO-31); assay type: cell-based
Text: as §1

P. aeruginosa = assay: MIC by agar dilution, P. aeruginosa; assay type: cell-based
Text: as §1

[3] = system: Methicillin-susceptible Staphylococcus aureus (MSSA); assay: MIC by agar dilution, MSSA clinical isolates; assay type: cell-based; details: MSSA
Text: as §1

[4] = system: Methicillin-resistant Staphylococcus aureus (MRSA); assay: MIC by agar dilution, MRSA clinical isolates; assay type: cell-based; details: MRSA
Text: as §1

[5] = system: Highly vancomycin-resistant Enterococci faecalis (VRE); assay: MIC by agar dilution, highly resistant VRE; assay type: cell-based
Text: as §1

[6] = system: Moderately vancomycin-resistant Enterococci faecium with the VanA gene (WHO-3); assay: MIC by agar dilution, VRE (WHO-3); assay type: cell-based
Text: as §1

[7] = system: Methicillin-resistant Staphylococcus epidermidis (MRSE); assay: MIC by agar dilution, MRSE clinical isolates; assay type: cell-based; details: MRSE
Text: as §1

K. penumonia = assay: MIC by agar dilution, K. penumonia; assay type: cell-based, K. pneumonia
Text: as §1

[8] = Table 1, E. coli, 4 isolates, value over three Gram-negative pathogens
[9] = Table 1, ORSA (WHO-25), 1 isolate
[10] = Table 1, MRSA (WHO-31), 1 isolate
[11] = Table 1, P. aeruginosa, 4 isolates, value over three Gram-negative pathogens
[12] = Table 1, VRE (highly vancomycin-resistant E. faecalis), 2 isolates
[13] = Table 1, VRE (WHO-3), 1 isolate
[14] = Table 1, K. penumonia, 4 isolates, value over three Gram-negative pathogens
[15] = Staphylococcus aureus, Table 1, 10 isolates
[16] = Staphylococcus aureus, Table 2, data from 8 isolates
[17] = Staphylococcus aureus, Table 3, data from 8 isolates

Measured: MIC

O=C(c1cccc(F)c1)c1[nH]c(Cl)c(Cl)c1-n1c(C(=O)c2cccc(F)c2)cc(Cl)c1Cl [Compound 1h]
0.13 to 1 µg/mL: [7]; Table 1, 3 isolates
4 µg/mL: [1]; [9] | [2]; [10] | [6]; [13]
4 to 16 µg/mL: [3]; Table 1, 10 isolates
>128 µg/mL: E. coli; [8] | P. aeruginosa; [11] | [5]; [12] | K. penumonia; [14]
>64 µg/mL: [4]; Table 1, 10 isolates

O=C(c1ccccc1C(F)(F)F)c1[nH]c(Cl)c(Cl)c1-n1c(C(=O)c2ccccc2C(F)(F)F)cc(Cl)c1Cl [Compound 1j]
>128 µg/mL: E. coli; [8] | [1]; [9] | [2]; [10] | P. aeruginosa; [11] | [3]; Table 1, 10 isolates | [4]; Table 1, 10 isolates | [5]; [12] | [6]; [13] | [7]; Table 1, 3 isolates | K. penumonia; [14]

O=C(c1ccccc1O)c1[nH]c(Cl)c(Cl)c1-n1c(C(=O)c2ccccc2O)cc(Cl)c1Cl [Compound 1, marinopyrrole A, reference compound]
0.06 to 1 µg/mL: [7]; Staphylococcus epidermidis, Table 1, 3 isolates
0.5 µg/mL: [3]; [16] | [3]; [17]
1 µg/mL: [1]; Staphylococcus aureus, Table 1, ORSA (WHO-25), 1 isolate | [1]; Staphylococcus aureus, Table 3, WHO-25 | [1]; Staphylococcus aureus, Table 2, WHO-25 | [2]; Staphylococcus aureus | [2]; Staphylococcus aureus, MRSA | [2]; Table 3, WHO-31 | [4]; [15] | [6]; Enterococcus | [6]; Table 3, WHO-3
0.5 to 1 µg/mL: [3]; [15] | [4]; [16] | [4]; [17] | [6]; Enterococcus, VRE
16 to 128 µg/mL: [5]
> 128 µg/mL: E. coli; Escherichia coli | P. aeruginosa; Pseudomonas aeruginosa | K. penumonia; Klebsiella pneumoniae
0.25 µg/mL: [7]; Staphylococcus epidermidis, Table 2, data from 4 isolates | [7]; Staphylococcus epidermidis, Table 3, data from 4 isolates

O=C(c1ccccc1F)c1[nH]c(Cl)c(Cl)c1-n1c(C(=O)c2ccccc2F)cc(Cl)c1Cl [Compound 1g]
>128 µg/mL: E. coli; [8] | [1]; [9] | [2]; [10] | P. aeruginosa; [11] | [3]; Table 1, 10 isolates | [4]; Table 1, 10 isolates | [5]; [12] | [6]; [13] | [7]; Table 1, 3 isolates | K. penumonia; [14]

O=C(c1ccc(F)cc1)c1[nH]c(Cl)c(Cl)c1-n1c(C(=O)c2ccc(F)cc2)cc(Cl)c1Cl [Compound 1i]
0.25 to 4 µg/mL: [7]; Table 1, 3 isolates
>128 µg/mL: E. coli; [8] | P. aeruginosa; [11] | [5]; [12] | K. penumonia; [14]
8 µg/mL: [1]; [9]
8 to 16 µg/mL: [4]; Table 1, 10 isolates
4 to 16 µg/mL: [3]; Table 1, 10 isolates
4 µg/mL: [2]; [10] | [6]; [13]

O=C(c1ccc(C(F)(F)F)cc1)c1[nH]c(Cl)c(Cl)c1-n1c(C(=O)c2ccc(C(F)(F)F)cc2)cc(Cl)c1Cl [Compound 1k]
32 to 64 µg/mL: [4]; Table 1, 10 isolates
0.03 to 4 µg/mL: [7]; Table 1, 3 isolates
>128 µg/mL: E. coli; [8] | P. aeruginosa; [11] | [5]; [12] | K. penumonia; [14]
8 µg/mL: [1]; [9] | [2]; [10] | [6]; [13]
8 to 32 µg/mL: [3]; Table 1, 10 isolates

COc1ccc(C(=O)c2[nH]c(Cl)c(Cl)c2-n2c(C(=O)c3ccc(OC)cc3)cc(Cl)c2Cl)cc1 [Compound 1f]
>128 µg/mL: E. coli; [8] | [1]; [9] | [2]; [10] | P. aeruginosa; [11] | [3]; Table 1, 10 isolates | [4]; Table 1, 10 isolates | [5]; [12] | [6]; [13] | [7]; Table 1, 3 isolates | K. penumonia; [14]

COc1cc(O)c(C(=O)c2[nH]c(Cl)c(Cl)c2-n2c(C(=O)c3cc(Cl)c(OC)cc3O)cc(Cl)c2Cl)cc1Cl [Compound 1m]
>128 µg/mL: E. coli; [8] | P. aeruginosa; [11] | [5]; [12] | K. penumonia; [14]
4 µg/mL: [1]; [9] | [2]; [10]
2 to 8 µg/mL: [3]; Table 1, 10 isolates | [4]; Table 1, 10 isolates
0.5 µg/mL: [6]; [13]
0.25 to 4 µg/mL: [7]; Table 1, 3 isolates

COc1cccc(C(=O)c2[nH]c(Cl)c(Cl)c2-n2c(C(=O)c3cccc(OC)c3)cc(Cl)c2Cl)c1 [Compound 1e]
>128 µg/mL: E. coli; [8] | [1]; [9] | [2]; [10] | P. aeruginosa; [11] | [3]; Table 1, 10 isolates | [4]; Table 1, 10 isolates | [5]; [12] | [6]; [13] | [7]; Table 1, 3 isolates | K. penumonia; [14]

O=C(c1ccccc1)c1[nH]c(Cl)c(Cl)c1-n1c(C(=O)c2ccccc2)cc(Cl)c1Cl [Compound 1d]
2 µg/mL: [6]; [13]
>128 µg/mL: E. coli; [8] | P. aeruginosa; [11] | [5]; [12] | K. penumonia; [14]
4 to 8 µg/mL: [4]; Table 1, 10 isolates
0.5 to 4 µg/mL: [7]; Table 1, 3 isolates
2 to 8 µg/mL: [3]; Table 1, 10 isolates
4 µg/mL: [1]; [9] | [2]; [10]

COc1cc(OC)c(C(=O)c2[nH]c(Cl)c(Cl)c2-n2c(C(=O)c3cc(Cl)c(OC)cc3OC)cc(Cl)c2Cl)cc1Cl [Compound 1n]
>64 µg/mL: E. coli; [8] | [1]; [9] | [2]; [10] | P. aeruginosa; [11] | [3]; Table 1, 10 isolates | [4]; Table 1, 10 isolates | [5]; [12] | [6]; [13] | [7]; Table 1, 3 isolates | K. penumonia; [14]
